Measured values from ChEMBL document CHEMBL1201862, “PubChem BioAssay data set” (2004).
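Compound exposure: 48 hours, 5 concentrations, 96-well plates. Abbreviation: GI50, concentration required for 50% inhibition of growth.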 Activity calls are given as the source filed them. Cut-off read from the data, not from the text of the source: active = GI50 up to about 1.1 µM and inactive = higher.

How the values were obtained:
Experiment in all cases: DTP human tumour cell line panel, 48 h
786-0 = system: 786-0
A549 = system: A549
ACHN = system: ACHN
CAKI-1 = system: CAKI-1
CCRF-CEM = system: CCRF-CEM
COLO 205 = system: COLO 205
DLD-1 = system: DLD-1
DMS-114 = system: DMS-114
DMS-273 = system: DMS-273
EKVX = system: EKVX
HCC 2998 = system: HCC 2998
HCT-116 = system: HCT-116
HCT-15 = system: HCT-15
HL-60 = system: HL-60
HOP-18 = system: HOP-18
HOP-62 = system: HOP-62
HOP-92 = system: HOP-92
HT-29 = system: HT-29
IGROV-1 = system: IGROV-1
K562 = system: K562
KM-20L2 = system: KM-20L2
KM12 = system: KM12
LOX IMVI = system: LOX IMVI
LXFL 529 = system: LXFL 529
M14 = system: M14
M19-MEL = system: M19-MEL
MOLT-4 = system: MOLT-4
Malme-3M = system: Malme-3M
NCI-H226 = system: NCI-H226
NCI-H23 = system: NCI-H23
NCI-H460 = system: NCI-H460
NCI-H522 = system: NCI-H522
OVCAR-3 = system: OVCAR-3
OVCAR-4 = system: OVCAR-4
OVCAR-5 = system: OVCAR-5
OVCAR-8 = system: OVCAR-8
RPMI-8226 = system: RPMI-8226
RXF 631 = system: RXF 631
SF-268 = system: SF-268
SF-295 = system: SF-295
SF-539 = system: SF-539
SK-MEL-28 = system: SK-MEL-28
SK-MEL-2 = system: SK-MEL-2
SK-MEL-5 = system: SK-MEL-5
SK-OV-3 = system: SK-OV-3
SN12C = system: SN12C
SNB-19 = system: SNB-19
SNB-75 = system: SNB-75
SNB-78 = system: SNB-78
SR = system: SR
SW-620 = system: SW-620
U-251 = system: U-251
UACC-62 = system: UACC-62
UO-31 = system: UO-31
XF498 = system: XF498
A498 = system: A498
RXF 393 = system: RXF 393
TK-10 = system: TK-10
UACC-257 = system: UACC-257

Compound: CNC(=S)NC1CCCCC1NC(=S)NC (configuration not stated)
- GI50 (786-0): > 100 µM (inactive)
- GI50 (A549): > 100 µM (inactive)
- GI50 (ACHN): > 100 µM (inactive)
- GI50 (CAKI-1): > 100 µM (inactive)
- GI50 (CCRF-CEM): > 100 µM (inactive)
- GI50 (COLO 205): > 100 µM (inactive)
- GI50 (DLD-1): > 100 µM (inactive)
- GI50 (DMS-114): > 100 µM (inactive)
- GI50 (DMS-273): > 100 µM (inactive)
- GI50 (EKVX): > 100 µM (inactive)
- GI50 (HCC 2998): > 100 µM (inactive)
- GI50 (HCT-116): > 100 µM (inactive)
- GI50 (HCT-15): > 100 µM
- GI50 (HL-60): > 100 µM (inactive)
- GI50 (HOP-18): > 100 µM (inactive)
- GI50 (HOP-62): > 100 µM (inactive)
- GI50 (HOP-92): > 100 µM (inactive)
- GI50 (HT-29): > 100 µM (inactive)
- GI50 (IGROV-1): > 100 µM (inactive)
- GI50 (K562): > 100 µM (inactive)
- GI50 (KM-20L2): > 100 µM (inactive)
- GI50 (KM12): > 100 µM (inactive)
- GI50 (LOX IMVI): > 100 µM (inactive)
- GI50 (LXFL 529): > 100 µM (inactive)
- GI50 (M14): > 100 µM (inactive)
- GI50 (M19-MEL): > 100 µM (inactive)
- GI50 (MOLT-4): > 100 µM (inactive)
- GI50 (Malme-3M): > 100 µM (inactive)
- GI50 (NCI-H226): > 100 µM (inactive)
- GI50 (NCI-H23): > 100 µM (inactive)
- GI50 (NCI-H460): > 100 µM (inactive)
- GI50 (NCI-H522): > 100 µM (inactive)
- GI50 (OVCAR-3): > 100 µM (inactive)
- GI50 (OVCAR-4): > 100 µM (inactive)
- GI50 (OVCAR-5): > 100 µM (inactive)
- GI50 (OVCAR-8): > 100 µM (inactive)
- GI50 (RPMI-8226): > 100 µM (inactive)
- GI50 (RXF 631): > 100 µM (inactive)
- GI50 (SF-268): > 100 µM (inactive)
- GI50 (SF-295): > 100 µM (inactive)
- GI50 (SF-539): > 100 µM (inactive)
- GI50 (SK-MEL-28): > 100 µM (inactive)
- GI50 (SK-MEL-2): > 100 µM (inactive)
- GI50 (SK-MEL-5): > 100 µM (inactive)
- GI50 (SK-OV-3): > 100 µM (inactive)
- GI50 (SN12C): > 100 µM (inactive)
- GI50 (SNB-19): > 100 µM (inactive)
- GI50 (SNB-75): > 100 µM (inactive)
- GI50 (SNB-78): > 100 µM (inactive)
- GI50 (SR): > 100 µM (inactive)
- GI50 (SW-620): > 100 µM (inactive)
- GI50 (U-251): > 100 µM (inactive)
- GI50 (UACC-62): > 100 µM (inactive)
- GI50 (UO-31): > 100 µM (inactive)
- GI50 (XF498): > 100 µM (inactive)

Compound: COc1ccc(C(=O)C(c2ccc(OC)cc2)C2(O)C(=O)Nc3c2ccc(Cl)c3C)cc1 (configuration not stated)
- GI50 (786-0): > 100 µM (inactive)
- GI50 (A498): > 100 µM (inactive)
- GI50 (A549): > 100 µM (inactive)
- GI50 (ACHN): > 100 µM (inactive)
- GI50 (CCRF-CEM): > 100 µM (inactive)
- GI50 (COLO 205): > 100 µM (inactive)
- GI50 (DMS-114): > 100 µM (inactive)
- GI50 (EKVX): > 100 µM (inactive)
- GI50 (HCC 2998): > 100 µM (inactive)
- GI50 (HCT-116): > 100 µM (inactive)
- GI50 (HCT-15): > 100 µM
- GI50 (HL-60): > 100 µM (inactive)
- GI50 (HOP-18): 58.9 µM (inactive)
- GI50 (HOP-62): > 100 µM (inactive)
- GI50 (HT-29): > 100 µM (inactive)
- GI50 (IGROV-1): > 100 µM (inactive)
- GI50 (K562): > 100 µM (inactive)
- GI50 (KM-20L2): > 100 µM (inactive)
- GI50 (KM12): > 100 µM (inactive)
- GI50 (LOX IMVI): 91.2 µM (inactive)
- GI50 (LXFL 529): > 100 µM (inactive)
- GI50 (M14): > 100 µM (inactive)
- GI50 (M19-MEL): > 100 µM (inactive)
- GI50 (MOLT-4): > 100 µM (inactive)
- GI50 (Malme-3M): > 100 µM (inactive)
- GI50 (NCI-H226): > 100 µM (inactive)
- GI50 (NCI-H23): > 100 µM (inactive)
- GI50 (NCI-H460): > 100 µM (inactive)
- GI50 (NCI-H522): > 100 µM (inactive)
- GI50 (OVCAR-3): > 100 µM (inactive)
- GI50 (OVCAR-4): > 100 µM (inactive)
- GI50 (OVCAR-5): > 100 µM (inactive)
- GI50 (OVCAR-8): > 100 µM (inactive)
- GI50 (RPMI-8226): > 100 µM (inactive)
- GI50 (RXF 393): 94.2 µM (inactive)
- GI50 (RXF 631): 34.9 µM (inactive)
- GI50 (SF-268): > 100 µM (inactive)
- GI50 (SF-295): > 100 µM (inactive)
- GI50 (SK-MEL-28): > 100 µM (inactive)
- GI50 (SK-MEL-2): > 100 µM (inactive)
- GI50 (SK-MEL-5): > 100 µM (inactive)
- GI50 (SK-OV-3): > 100 µM (inactive)
- GI50 (SN12C): > 100 µM (inactive)
- GI50 (SNB-19): > 100 µM (inactive)
- GI50 (SNB-75): 37.3 µM (inactive)
- GI50 (SNB-78): > 100 µM (inactive)
- GI50 (SW-620): > 100 µM (inactive)
- GI50 (TK-10): > 100 µM (inactive)
- GI50 (U-251): > 100 µM (inactive)
- GI50 (UACC-257): 92.9 µM (inactive)
- GI50 (UACC-62): > 100 µM (inactive)
- GI50 (UO-31): 64.6 µM (inactive)
